≈ marks a conversion by molar mass, not a printed value. Like-named read-outs stand apart in the source and are kept apart here.
Legend:
[1] = system: Staphylococcus aureus; assay: In vitro broth microdilution, 24-hour minimal inhibitory concentration (MIC); format: cell-based; settings: Mueller-Hinton broth; for MIC: read-out: Minimum Inhibitory Concentration
Text: (§1) A standard microdilution method (National Committee for Clinical Standards. Tentative standard M7-T. Standard methods for dilution antimicrobial susceptibility tests for bacteria that grow aerobically. National Committee for Clinical Laboratory Standards, Villanova, Pa. 1982) with Mueller-Hinton broth is used to determine the 24-hour minimal inhibitory concentrations (MIC's) for test strains of Staphylococcus aureus and Escherichia coli.

[2] = system: Escherichia coli; assay: as above; format: cell-based; settings: Mueller-Hinton broth; for MIC: read-out: Minimum Inhibitory Concentration
Text: as §1

[3] = system: Staphylococcus aureus; assay: In vivo activity against Staphylococcus aureus in an acute lethal mouse model; settings: mice infected intraperitoneally, dosed 1 h and 4 h post-infection, survivors on seventh day
Procedure: The in vivo potency of these compounds is exemplified by the data summarized in Table X. Determinations of in vivo efficacy are performed by inoculating mice intraperitoneally with cultures of the infecting organism diluted to produce 100% mortality in control animals within twenty-four hours. The culture of S. aureus used to infect the animals was diluted to the required bacterial density using 5% aqueous hog gastric mucin. The compounds are dissolved or suspended in 0.25% aqueous Methocel® (Methocel®: Hydroxypropyl Methylcullulose, E15 Premium, Dow Chemical Company) for oral administration or sterile distilled water containing 5% dimethylsulfoxide (Fisher Scientific Company, Fairlawn, N.J.) for subcutaneous administration. The mice are dosed at one hour and at four hours post-infection. Mortality is recorded daily until test determination seven days post infection. The number of survivors in each treatment group on the seventh day after infection is used in the calculation of the ED50, the dose of compound that protects 50% of the mice (Litchfield,J. T. and Wildoxon. A simulated method for evaluating dose-effect experiments. J. Pharmacol Exp. Ther., 98:99-113, 1949).

[4] = Staphylococcus aureus, sc, 168 h, Subcutaneous Administration, read-out: ED50
[5] = Staphylococcus aureus, 168 h, Oral Administration, read-out: ED50

CC(=O)NC[C@H]1CN(c2ccc(-c3ccc(CN(CCO)CCO)cc3)cc2)C(=O)O1 [Example 50] was tested. Which MIC [1] did it give?
Its MIC is 0.5 µg/mL (≈ 1.17 µM).

And the MIC [2]?
The MIC was over 128 µg/mL.

And the ED50 [3, 4]?
The ED50 was 6.5 mg/kg.

What does the source list for CC(=O)NC[C@H]1CN(c2ccc(-c3ccc(C(=O)CCN(C)C)cc3)cc2)C(=O)O1 [Example 57, (l)-N-[3-(4-(4'-(3-N,N-dimethylaminopropionyl)phenyl)phenyl)-2-oxooxazolidin-5-ylmethyl]acetamide]?
MIC [1]: 1 µg/mL (≈ 2.44 µM); MIC [2]: > 128 µg/mL; ED50 [3, 5]: 18 mg/kg; ED50 [3, 4]: 10 mg/kg

CC(=O)NC[C@H]1CN(c2ccc(-c3ccc(C(=O)CCN4CCN(C)CC4)cc3)cc2)C(=O)O1 [Example 60] was tested. Which MIC [1] did it give?
The MIC was 1 µg/mL (≈ 2.15 µM).

What about the MIC [2] of the same molecule?
Its MIC is over 128 µg/mL.

What about the ED50 [3, 5] of the same molecule?
The ED50 was 30 mg/kg.

What about the ED50 [3, 4] of the same molecule?
Its ED50 is 5.5 mg/kg.

What does the source list for CC(=O)NC[C@H]1CN(c2ccc(-c3ccc(C(O)CCN4CCN(C)CC4)cc3)cc2)C(=O)O1 (stereo partly drawn) [Example 61]?
MIC [1]: 2 µg/mL (≈ 4.29 µM); MIC [2]: > 128 µg/mL; ED50 [3, 5]: 47.4 mg/kg; ED50 [3, 4]: 2.7 mg/kg

How did the MIC [1] turn out when CC(=O)NC[C@H]1CN(c2ccc(-c3ccc(C(=O)C(C)CN4CCN(C)CC4)cc3)cc2)C(=O)O1 (stereo partly drawn) [Example 62] was run?
Its MIC is 2 µg/mL (≈ 4.18 µM).

What about the MIC [2] of the same molecule?
Its MIC is over 128 µg/mL.

What about the ED50 [3, 5] of the same molecule?
Its ED50 is 51.9 mg/kg.

And the ED50 [3, 4]?
Its ED50 is 10 mg/kg.

C=C(C)C(=O)c1ccc(-c2ccc(N3C[C@H](CNC(C)=O)OC3=O)cc2)cc1 [Example 63] was tested. Which MIC [1] did it give?
Its MIC is 0.25 µg/mL (≈ 0.661 µM).

What about the MIC [2] of the same molecule?
The MIC was over 128 µg/mL.

And the ED50 [3, 5]?
Its ED50 is over 90 mg/kg.

What about the ED50 [3, 4] of the same molecule?
Its ED50 is over 90 mg/kg.

CC(=O)NC[C@H]1CN(c2ccc(-c3ccc(C(O)C(C)CN4CCN(C)CC4)cc3)cc2)C(=O)O1 (stereo partly drawn) [Example 64] was tested. Which MIC [1] did it give?
The MIC was 4 µg/mL (≈ 8.32 µM).

And the MIC [2]?
The MIC was over 128 µg/mL.

What about the ED50 [3, 5] of the same molecule?
Its ED50 is 50 mg/kg.

What about the ED50 [3, 4] of the same molecule?
The ED50 was 11 mg/kg.

What does the source list for CSc1ccc(-c2ccc(N3C[C@H](CNC(C)=O)OC3=O)cc2)cc1 [Example 67, (l)-N-[3-(4-(4'-methylthiophenyl)phenyl)-2-oxooxazolidin-5-ylmethyl]acetamide]?
MIC [1]: 0.25 µg/mL (≈ 0.701 µM); MIC [2]: > 128 µg/mL; ED50 [3, 5]: 4.5 mg/kg; ED50 [3, 4]: 30 mg/kg

Which “Minimum Inhibitory Concentration” value [1] does the source give for CC(=O)NCC1CN(c2ccc(-c3ccc(S(C)(=O)=O)cc3)cc2)C(=O)O1 (stereo not drawn) [Example 69, (l)-N-[3-(4-(4'-Methylsulfonylphenyl)phenyl)-2-oxooxazolidin-5-ylmethyl]acetamide] here?
Its value is 0.25 µg/mL.

And the “Minimum Inhibitory Concentration” value [2]?
Its value is over 128 µg/mL.

What about the ED50 ([3]; Oral Administration, 10080 min) of the same molecule?
The ED50 was 4 mg/kg.

What about the ED50 ([3]; Subcutaneous Administration, 10080 min) of the same molecule?
The ED50 was 1.2 mg/kg.

Which MIC [1] does the source give for CCc1cccc(-c2ccc(N3C[C@H](CNC(C)=O)OC3=O)cc2)c1 [Example 70] here?
The MIC was 2 µg/mL (≈ 5.91 µM).

And the MIC [2]?
Its MIC is over 128 µg/mL.

And the ED50 [3, 5]?
The ED50 was 17 mg/kg.

And the ED50 [3, 4]?
The ED50 was 10 mg/kg.

With CC(=O)NC[C@H]1CN(c2ccc(-c3ccccc3C)cc2)C(=O)O1 [Example 71] as the molecule, how does the MIC [1] read?
The MIC was 2 µg/mL (≈ 6.17 µM).

What about the MIC [2] of the same molecule?
The MIC was over 128 µg/mL.

What about the ED50 [3, 5] of the same molecule?
The ED50 was 51.9 mg/kg.

And the ED50 [3, 4]?
The ED50 was over 90 mg/kg.

CC(=O)NC[C@H]1CN(c2ccc(-c3cccc(N)c3)cc2)C(=O)O1 [Example 73] was tested. Which MIC [1] did it give?
Its MIC is 0.5 µg/mL (≈ 1.54 µM).

What about the MIC [2] of the same molecule?
Its MIC is over 128 µg/mL.

And the ED50 [3, 5]?
Its ED50 is 11.8 mg/kg.

And the ED50 [3, 4]?
Its ED50 is 5 mg/kg.

CC(=O)NC[C@H]1CN(c2ccc(-c3cccc(N(C)C)c3)cc2)C(=O)O1 [Example 74] was tested. Which MIC [1] did it give?
Its MIC is 8 µg/mL (≈ 22.6 µM).

And the MIC [2]?
Its MIC is over 128 µg/mL.

And the ED50 [3, 4]?
Its ED50 is 17.1 mg/kg.

CC(=O)NC[C@H]1CN(c2ccc(-c3ccncc3)cc2)C(=O)O1 [Example 85, (l)-N-[3-(4-(4-Pyridyl)phenyl)-2-oxooxazolidin-5-ylmethyl]acetamide] was tested. Which MIC [1] did it give?
The MIC was under 0.13 µg/mL.

And the MIC [2]?
Its MIC is over 128 µg/mL.

What about the ED50 [3, 5] of the same molecule?
The ED50 was 1.3 mg/kg.

And the ED50 [3, 4]?
The ED50 was 0.5 mg/kg.

Which results are given for CC(=O)NC[C@H]1CN(c2ccc(-c3ccccn3)cc2)C(=O)O1 [Example 86]?
MIC [1]: 2 µg/mL (≈ 6.42 µM); MIC [2]: > 128 µg/mL; ED50 [3, 4]: 15.5 mg/kg

Which MIC [1] does the source give for CC(=O)NC[C@H]1CN(c2ccc(-c3cccc[n+]3[O-])cc2)C(=O)O1 [Example 87] here?
The MIC was 32 µg/mL (≈ 97.8 µM).

What about the MIC [2] of the same molecule?
Its MIC is over 128 µg/mL.

And the ED50 [3, 5]?
Its ED50 is 16.1 mg/kg.

And the ED50 [3, 4]?
Its ED50 is 9.8 mg/kg.

Which results are given for CC(=O)NC[C@H]1CN(c2ccc(-c3cccnc3)cc2)C(=O)O1 [Example 88]?
MIC [1]: < 0.13 µg/mL; MIC [2]: > 128 µg/mL; ED50 [3, 5]: 1.6 mg/kg; ED50 [3, 4]: 0.5 mg/kg

CC(=O)NC[C@H]1CN(c2ccc(-c3ccc[n+]([O-])c3)cc2)C(=O)O1 [Example 89] was tested. Which MIC [1] did it give?
Its MIC is 2 µg/mL (≈ 6.11 µM).

And the MIC [2]?
The MIC was over 128 µg/mL.

And the ED50 [3, 5]?
Its ED50 is 2 mg/kg.

What about the ED50 [3, 4] of the same molecule?
Its ED50 is under 3.3 mg/kg.

Which MIC [1] does the source give for CC(=O)NC[C@H]1CN(c2ccc(-c3cc(O)ccc3O)cc2)C(=O)O1 [Example 113, (l)-N-[3-(4-(2',5'-Dihydroxyphenyl)phenyl)-2-oxooxazolidin-5-ylmethyl]acetamide] here?
The MIC was 16 µg/mL (≈ 46.7 µM).

And the MIC [2]?
The MIC was over 128 µg/mL.

And the ED50 [3, 5]?
The ED50 was over 90 mg/kg.

And the ED50 [3, 4]?
The ED50 was 68.3 mg/kg.

How did the MIC [1] turn out when CCc1ccc(-c2ccc(N3C[C@H](CNC(C)=O)OC3=O)cc2)cc1 [Example 114, (l)-N-[3-(4-(4'-Ethylphenyl)phenyl)-2-oxooxazolidin-5-ylmethyl]acetamide] was run?
The MIC was 0.5 µg/mL (≈ 1.48 µM).

And the MIC [2]?
Its MIC is over 128 µg/mL.

What about the ED50 [3, 5] of the same molecule?
Its ED50 is 8.1 mg/kg.

And the ED50 [3, 4]?
The ED50 was over 100 mg/kg.

What does the source list for CC(=O)NCC1CN(c2ccc(-c3ccc([N+](C)(C)[O-])cc3)cc2)C(=O)O1 (stereo not drawn) [Example 116]?
MIC [1]: 16 µg/mL (≈ 43.3 µM); MIC [2]: > 128 µg/mL; ED50 [3, 4]: 6.4 mg/kg

CC(=O)NC[C@H]1CN(c2ccc(-c3cccc([N+](=O)[O-])c3)cc2)C(=O)O1 [Example 119] was tested. Which MIC [1] did it give?
Its MIC is under 0.13 µg/mL.

And the MIC [2]?
The MIC was over 128 µg/mL.

What about the ED50 [3, 5] of the same molecule?
Its ED50 is 6.2 mg/kg.

What about the ED50 [3, 4] of the same molecule?
The ED50 was 5 mg/kg.

Which results are given for CC(=O)NC[C@H]1CN(c2ccc(-c3ccno3)cc2)C(=O)O1 [Example 130, (l)-N-[3-[4-(5-Isoxazolyl)phenyl]-2-oxooxazolidin-5-ylmethyl]acetamide]?
MIC [1]: 1 µg/mL (≈ 3.32 µM); MIC [2]: > 128 µg/mL; ED50 [3, 5]: 6 mg/kg; ED50 [3, 4]: 6 mg/kg

Which results are given for CC(=O)NC[C@H]1CN(c2ccc(-c3csc(C)n3)cc2)C(=O)O1 [Example 132]?
MIC [1]: 4 µg/mL (≈ 12.1 µM); MIC [2]: > 128 µg/mL; ED50 [3, 4]: 17 mg/kg

Which MIC [1] does the source give for CC(=O)NC[C@H]1CN(c2ccc(-c3csc(N)n3)cc2)C(=O)O1 [Example 134] here?
Its MIC is 8 µg/mL (≈ 24.1 µM).

And the MIC [2]?
The MIC was over 128 µg/mL.

And the ED50 [3, 5]?
Its ED50 is 56.5 mg/kg.

And the ED50 [3, 4]?
Its ED50 is 47 mg/kg.

Which results are given for CC(=O)NC[C@H]1CN(c2ccc(-c3ccnc(N)n3)cc2)C(=O)O1 [Example 135]?
MIC [1]: 4 µg/mL (≈ 12.2 µM); MIC [2]: > 128 µg/mL; ED50 [3, 5]: 68 mg/kg

For CC(=O)NC[C@H]1CN(c2ccc(-c3cnco3)cc2)C(=O)O1 [Example 136], which MIC [1] is on record?
The MIC was 1 µg/mL (≈ 3.32 µM).

What about the MIC [2] of the same molecule?
The MIC was over 128 µg/mL.

What about the ED50 [3, 5] of the same molecule?
The ED50 was 14.8 mg/kg.

And the ED50 [3, 4]?
Its ED50 is 51.9 mg/kg.

Source: patent US5254577A, “Aminomethyloxooxazolidinyl arylbenzene derivatives useful as antibacterial agents” (The Du Pont Merck Pharmaceutical Company, priority 1992, dated 1993)
